# Assay results: ChEMBL document CHEMBL1201862, “PubChem BioAssay data set” (2004)
# Active and inactive are the calls of the source.
# Tests used:
# [1] = target: T1, Zinc finger protein mex-5 (Caenorhabditis elegans, UniProt Q9XUB2); assay: potency of MEX-5 RNA-binding blockers – biochemical, C. elegans, fluorescence polarization, dose response (AID 1960)
# T1 sequence (Q9XUB2 whole entry): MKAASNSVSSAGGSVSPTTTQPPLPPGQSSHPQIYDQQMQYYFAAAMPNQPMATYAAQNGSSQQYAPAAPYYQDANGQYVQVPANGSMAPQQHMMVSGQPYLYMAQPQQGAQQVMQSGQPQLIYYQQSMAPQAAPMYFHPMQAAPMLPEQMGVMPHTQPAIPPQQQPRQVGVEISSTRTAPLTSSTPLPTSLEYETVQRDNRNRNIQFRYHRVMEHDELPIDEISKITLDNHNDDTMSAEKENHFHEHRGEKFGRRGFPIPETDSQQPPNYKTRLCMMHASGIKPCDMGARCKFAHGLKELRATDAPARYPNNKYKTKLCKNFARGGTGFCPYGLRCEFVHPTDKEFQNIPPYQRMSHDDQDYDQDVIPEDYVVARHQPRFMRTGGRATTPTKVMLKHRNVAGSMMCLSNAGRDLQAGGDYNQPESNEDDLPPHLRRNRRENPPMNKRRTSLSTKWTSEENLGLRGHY
# [2] = tested on: Escherichia coli; assay: microbe, parasite or virus in culture
# [3] = tested on: Escherichia coli; assay: microbe, parasite or virus in culture; remark: listed apart in the source
# [4] = target: T2, RNA-binding protein pos-1 (Caenorhabditis elegans, UniProt G5EF15); assay: disruptors of C. elegans POS-1 RNA interaction – biochemical, fluorescence polarization, dose response (AID 1964);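 also: purified POS-1 fused to maltose binding protein made in E. coli; potency of compounds blocking POS-1 binding to fluorescent RNA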
# T2 sequence (G5EF15 whole entry): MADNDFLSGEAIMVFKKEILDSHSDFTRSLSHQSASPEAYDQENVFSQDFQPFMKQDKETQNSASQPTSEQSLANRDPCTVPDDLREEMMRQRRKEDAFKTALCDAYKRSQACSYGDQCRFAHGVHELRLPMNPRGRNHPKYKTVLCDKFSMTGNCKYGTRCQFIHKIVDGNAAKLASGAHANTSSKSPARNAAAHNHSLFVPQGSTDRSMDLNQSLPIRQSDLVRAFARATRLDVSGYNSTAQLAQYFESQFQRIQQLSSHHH
# [5] = tested on: Streptococcus; assay: GAS UMAA2166 growth inhibition – luminescence, BacTiterGlo, counter-screen for streptokinase expression inhibitor project, dose response (AID 1915); assay type: functional, organism-based;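 also: potency for reduction of bacterial viability or growth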
# [6] = tested on: Streptococcus sp. 'group A'; assay: Streptococcus pyogenes SK(-)GAS viability under kanamycin – luminescence, BacTiterGlo, confirmation, counter-screen for streptokinase expression inhibitor project, dose response (AID 1900); assay type: functional, organism-based
# [7] = target: Large T antigen (Simian virus 40, UniProt P03070); assay type: functional, Betapolyomavirus macacae;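 also: Confirmatory-stage PubChem screen for compounds that inhibit SV40 T antigen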
# [8] = target: Trypsin (Sus scrofa, UniProt P00761); assay: trypsin protease activity blockade – biochemical, quenched peptide fluorescence, cherry-pick, selectivity assay for Rce1 protease inhibitor project, dose response (AID 488789)
# [9] = target: T3, CAAX prenyl protease 2 (Saccharomyces cerevisiae S288c, UniProt Q03530); assay type: biochemical
# T3 sequence (Q03530 whole entry): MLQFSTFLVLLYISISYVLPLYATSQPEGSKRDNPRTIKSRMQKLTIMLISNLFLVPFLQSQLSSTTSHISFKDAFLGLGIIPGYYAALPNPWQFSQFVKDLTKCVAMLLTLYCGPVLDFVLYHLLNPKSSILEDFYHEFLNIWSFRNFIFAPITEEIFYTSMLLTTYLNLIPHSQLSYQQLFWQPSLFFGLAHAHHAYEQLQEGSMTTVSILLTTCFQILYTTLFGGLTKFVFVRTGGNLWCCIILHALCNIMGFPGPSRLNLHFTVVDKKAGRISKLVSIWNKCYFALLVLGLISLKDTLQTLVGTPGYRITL
# [10] = target: CAAX prenyl protease 2 (Homo sapiens, UniProt Q9Y256); assay: inhibition of Ras-converting CAAX protease Rce1 – biochemical, yeast membranes, quenched-peptide fluorescence, cherry-pick, dose response (AID 588849)
# [11] = target: T4, Beta-adrenergic receptor kinase 1 (Homo sapiens, UniProt P25098); assay: blockers of aptamer binding to GRK2 – biochemical, flow cytometry beads, FAM-aptamer, powder set 1, dose response (AID 588720)
# T4 sequence (P25098 whole entry): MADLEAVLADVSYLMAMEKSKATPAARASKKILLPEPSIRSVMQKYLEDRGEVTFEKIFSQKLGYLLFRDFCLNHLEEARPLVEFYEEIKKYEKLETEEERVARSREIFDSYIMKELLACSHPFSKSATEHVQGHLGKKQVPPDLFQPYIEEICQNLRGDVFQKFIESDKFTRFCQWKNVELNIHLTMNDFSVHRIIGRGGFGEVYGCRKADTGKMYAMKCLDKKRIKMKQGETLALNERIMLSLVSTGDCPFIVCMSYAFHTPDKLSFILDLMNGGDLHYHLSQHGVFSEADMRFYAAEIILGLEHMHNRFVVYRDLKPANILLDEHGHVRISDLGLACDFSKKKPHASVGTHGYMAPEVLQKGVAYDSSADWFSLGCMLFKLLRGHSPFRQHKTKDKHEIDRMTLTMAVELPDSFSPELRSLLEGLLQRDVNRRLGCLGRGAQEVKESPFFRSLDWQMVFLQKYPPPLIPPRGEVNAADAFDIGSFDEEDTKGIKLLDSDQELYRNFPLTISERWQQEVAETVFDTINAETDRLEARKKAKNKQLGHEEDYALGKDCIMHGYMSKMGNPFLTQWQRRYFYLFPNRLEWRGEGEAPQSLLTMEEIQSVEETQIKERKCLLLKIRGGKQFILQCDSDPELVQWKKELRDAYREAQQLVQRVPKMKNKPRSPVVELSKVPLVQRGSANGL
# [12] = blockers of HIV-1 envelope-mediated cell-cell fusion – cherry-pick, dose response (AID 652057); assay type: functional, cell-based
# [13] = tested on: Streptococcus; assay: Luminescence Microorganism-Based Dose Response Follow up to Identify Compounds Cytotoxic to Streptococcus. [Related pubchem assays: 1677 (Project Summary), 1915, 1914, 1902 (Retest at Dose), 1900 (Counter Screen), 1662 (Primary HTS)]; assay type: functional, organism-based
# [14] = viability loss in CEM21 cells – cell-based, CellTiter-Glo luminescence, cherry-picked, cytotoxicity control for viral fusion inhibitor project, dose response (AID 652042); assay type: functional;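 also: potency for signal decrease meaning cytotoxicity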
# [15] = target: Heat shock protein HSP 90-alpha (Homo sapiens, UniProt P07900); assay type: functional, organism-based
# [16] = target: T5, Heat shock factor protein 1 (Mus musculus, UniProt P38532); assay: enhancement of HSF1-driven luciferase signal – cell-based, NIH3T3, luminescence, dose retest, confirmation (AID 435004); assay type: functional;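 also: stress induced by proteasome inhibitor MG132 added 30 min after compound; luciferase reporter driven by HSF1 response element in NIH3T3 cells; actives raise luminescence as potentiators of the MG132 stress response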
# T5 sequence (P38532 whole entry): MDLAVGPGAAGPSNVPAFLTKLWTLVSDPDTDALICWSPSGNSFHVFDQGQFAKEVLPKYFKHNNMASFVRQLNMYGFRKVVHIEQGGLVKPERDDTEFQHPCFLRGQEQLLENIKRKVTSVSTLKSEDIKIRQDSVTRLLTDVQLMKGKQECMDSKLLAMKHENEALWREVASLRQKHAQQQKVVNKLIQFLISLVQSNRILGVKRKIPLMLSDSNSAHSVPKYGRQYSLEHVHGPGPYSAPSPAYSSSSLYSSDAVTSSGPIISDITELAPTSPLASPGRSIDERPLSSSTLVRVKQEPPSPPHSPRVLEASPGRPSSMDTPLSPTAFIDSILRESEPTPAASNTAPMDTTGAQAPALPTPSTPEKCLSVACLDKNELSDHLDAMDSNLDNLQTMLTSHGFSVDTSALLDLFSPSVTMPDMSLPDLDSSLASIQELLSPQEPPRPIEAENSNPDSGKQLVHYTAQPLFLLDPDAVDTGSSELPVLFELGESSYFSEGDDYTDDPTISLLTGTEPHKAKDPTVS
# [17] = tested on: HEK293; assay: cells; settings: Homo sapiens
# [18] = off-target signal loss in HeLa-CEM21 co-culture – HeLa F-luc CTL cells, cherry-picked, counter-screen for HIV-1 Env fusion inhibitor project, dose response (AID 652040); assay type: functional, cell-based;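 also: potency for signal decrease marking cytotoxic or nonspecific inhibition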
# [19] = Luminescence Cell-Based Dose Retest to Confirm Inhibitors of Cancer Stem Cells. [Related pubchem assays (depositor defined):AID2717, AID2721]; assay type: functional; settings: Homo sapiens
# [20] = target: T6, Streptokinase A (Streptococcus pyogenes serotype M1, UniProt P10520); assay: viability-normalized secreted streptokinase activity reduction – plasminogen activation absorbance, OD405, dose response (AID 1914); assay type: functional, Streptococcus pyogenes M1 GAS;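 also: secreted streptokinase activity via plasminogen activation per viability signal from cell pellet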
# T6 sequence (P10520 whole entry): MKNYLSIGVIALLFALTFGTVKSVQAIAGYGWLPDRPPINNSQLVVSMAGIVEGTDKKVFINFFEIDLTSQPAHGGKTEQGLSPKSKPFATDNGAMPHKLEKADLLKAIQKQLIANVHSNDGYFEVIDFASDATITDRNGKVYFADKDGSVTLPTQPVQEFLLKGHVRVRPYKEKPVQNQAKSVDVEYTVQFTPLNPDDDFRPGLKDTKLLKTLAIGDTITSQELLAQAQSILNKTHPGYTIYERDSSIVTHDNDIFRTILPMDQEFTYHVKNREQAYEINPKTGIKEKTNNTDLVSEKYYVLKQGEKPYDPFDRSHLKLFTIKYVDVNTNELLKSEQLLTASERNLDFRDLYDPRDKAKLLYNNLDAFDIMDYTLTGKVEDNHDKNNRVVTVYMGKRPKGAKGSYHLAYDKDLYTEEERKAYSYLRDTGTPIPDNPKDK
# [21] = blockers of HIV-1 ZM109 envelope-driven cell-cell fusion – HeLa effector, CEM target cells, luciferase, cherry-pick, dose response (AID 652058); assay type: functional, cell-based;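 also: luciferase signal from HIV-1 Env mediated cell-cell fusion of effector and target cells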
# [22] = HIV-1 AD8 envelope cell-cell fusion blockers – cherry-pick, dose response (AID 652062); assay type: functional, cell-based;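 also: luciferase signal from cell-cell fusion driven by HIV-1 clade B AD8 Env; potency is for inhibitors of fusion seen as a drop in luminescence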
# [23] = tested on: HEK293; assay: cells; settings: Homo sapiens; remark: listed apart in the source
# [24] = tested on: Vero; assay: cells; assay type: functional, Chlorocebus sabaeus; settings: Chlorocebus sabaeus, Vero
# [25] = tested on: INS1; assay: INS-1E mitochondrial potential rescue under cytokines – cell-based, JC-1 fluorescence ratio, dry powder, dose response (AID 488931); assay type: functional; settings: Rattus norvegicus
# [26] = tested on: INS1; assay: beta-cell survival under cytokine stress – INS-1E, ATP luminescence, dry powder, dose response (AID 488844); assay type: functional, cell-based; settings: Rattus norvegicus
# Sequence of Trypsin (P00761 whole entry): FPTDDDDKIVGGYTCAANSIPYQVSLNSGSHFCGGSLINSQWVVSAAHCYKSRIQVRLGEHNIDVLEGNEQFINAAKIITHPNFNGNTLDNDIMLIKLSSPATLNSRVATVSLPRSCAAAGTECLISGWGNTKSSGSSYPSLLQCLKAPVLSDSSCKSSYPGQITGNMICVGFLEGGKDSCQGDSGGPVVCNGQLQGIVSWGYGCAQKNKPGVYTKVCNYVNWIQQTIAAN
# Sequence of Large T antigen (P03070 whole entry): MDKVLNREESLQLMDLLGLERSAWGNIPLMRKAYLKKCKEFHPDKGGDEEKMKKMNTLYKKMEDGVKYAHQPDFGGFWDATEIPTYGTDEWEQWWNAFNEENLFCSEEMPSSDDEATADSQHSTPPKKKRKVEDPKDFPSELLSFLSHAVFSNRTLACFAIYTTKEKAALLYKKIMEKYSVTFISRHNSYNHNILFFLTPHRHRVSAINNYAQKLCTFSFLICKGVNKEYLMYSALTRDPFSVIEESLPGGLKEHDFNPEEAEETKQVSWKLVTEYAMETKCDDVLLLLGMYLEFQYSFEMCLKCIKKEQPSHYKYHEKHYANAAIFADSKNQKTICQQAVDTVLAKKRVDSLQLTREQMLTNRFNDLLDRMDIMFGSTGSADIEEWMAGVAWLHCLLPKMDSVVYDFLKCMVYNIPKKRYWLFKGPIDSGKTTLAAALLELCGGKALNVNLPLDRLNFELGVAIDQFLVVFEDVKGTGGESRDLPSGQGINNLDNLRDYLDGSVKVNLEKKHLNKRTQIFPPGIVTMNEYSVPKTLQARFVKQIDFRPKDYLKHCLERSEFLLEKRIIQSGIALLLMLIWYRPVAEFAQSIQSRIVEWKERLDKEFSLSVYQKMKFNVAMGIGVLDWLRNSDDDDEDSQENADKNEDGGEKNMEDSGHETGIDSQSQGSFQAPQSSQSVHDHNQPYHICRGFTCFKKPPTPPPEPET
# Sequence of CAAX prenyl protease 2 (Homo sapiens, UniProt Q9Y256) (Q9Y256 whole entry): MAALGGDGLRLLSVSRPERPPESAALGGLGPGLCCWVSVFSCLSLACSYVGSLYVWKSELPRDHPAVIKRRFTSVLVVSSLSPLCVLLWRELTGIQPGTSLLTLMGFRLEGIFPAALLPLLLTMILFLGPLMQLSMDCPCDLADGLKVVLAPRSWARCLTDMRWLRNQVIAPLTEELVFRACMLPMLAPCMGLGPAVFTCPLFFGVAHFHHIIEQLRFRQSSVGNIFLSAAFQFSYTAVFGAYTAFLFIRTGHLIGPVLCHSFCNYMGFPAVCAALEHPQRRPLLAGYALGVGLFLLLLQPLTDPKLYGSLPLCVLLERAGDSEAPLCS
compound,measurement,setting,value
CN(C)c1ccc(O)c2c1CC1CC3C(N(C)C)C(=O)C(C(N)=O)=C(O)[C@@]3(O)C(=O)C1=C2O (stereo partly specified),EC50,[1],37 µM (active)
same,AC50,[2],11.4 µM (active)
same,AC50,[3],1.78 µM (active)
same,EC50,[4],> 300 µM (not active)
same,EC50,[5],0.184 µM (active)
same,EC50,[6],0.078 µM (active)
CN1CC(C(=O)O)Cc2c1ccc1ccccc21 (stereo unspecified),IC50,[7],19.4 µM (active)
same,AC50,[8],5.17 µM (active)
same,AC50,[9],9.61 µM (active)
same,AC50,[10],7.4 µM (active)
COC(=O)c1ccc(NC(=O)CCS(=O)(=O)c2ccc(Br)cc2)cc1,EC50,[11],6.56 µM (active)
CC(=O)N(C)c1ccc(OCC(O)Cn2c3ccc(Cl)cc3c3cc(Cl)ccc32)cc1 (stereo unspecified),AC50,[12],2.19 µM (active)
same,EC50,[13],9.63 µM (active)
same,AC50,[14],23.2 µM (active)
same,AC50,[15],5.12 µM (active)
same,EC50,[16],> 260 µM (inactive)
same,EC50,[17],> 59.6 µM (inactive)
same,AC50,[18],2.47 µM (active)
same,AC50,[19],1.59 µM (active)
same,EC50,[20],2.66 µM (active)
same,AC50,[21],2.38 µM (active)
same,AC50,[22],4.49 µM (active)
same,EC50,[23],> 59.6 µM (inactive)
same,EC50,[5],80.6 µM (active)
same,EC50,[6],2.7 µM (active)
CC(=O)Oc1ccccc1C(=O)C=Cc1cccc([N+](=O)[O-])c1,CC50,[24],16.5 µM (active)
same,AC50,[15],3.01 µM (active)
same,EC50,[17],> 59.6 µM (inactive)
same,EC50,[23],> 59.6 µM (inactive)
Cc1ccc(S(=O)(=O)N(C)C[C@@H]2Oc3c(NC(=O)Nc4ccccc4)cccc3C(=O)N([C@@H](C)CO)C[C@H]2C)cc1,AC50,[25],81.6 µM (active)
same,AC50,[26],27 µM (active)
